# Data from US20140082772A1, “Herbicide-Tolerant Plants” (priority 2010, published 2014).
# Tests used:
# [1] = system: AHAS-inhibitor tolerant WOSR line; experiment: Plot pre-emergence crop tolerance (PHYTOX), Example 4, tolerant line; format: in vivo, Brassica napus
# Protocol: (§1) Plants of an AHAS-inhibitor tolerant WOSR line and plants of an AHAS-inhibitor susceptible WOSR line are sown side by side in a plot. A pre-emergence treatment of herbicides is applied to the plants by means of fine distributed nozzles. There are four replications of each treatment.
# (§2) The evaluation for crop-tolerance is assessed as PHYTOX symptom caused by the chemical compounds carried out using a scale from 0 to 100%, compared to the untreated control plants. Here, 0 means no damage and 100 means complete destruction of the plants.
# [2] = system: AHAS-inhibitor susceptible WOSR line; experiment: Plot pre-emergence crop tolerance (PHYTOX), Example 4, susceptible line; format: in vivo, Brassica napus
# Protocol: as §1, §2
# [3] = system: AHAS-inhibitor tolerant WOSR line; experiment: Greenhouse post-emergence herbicide crop damage, Example 1, tolerant line; format: in vivo, Brassica napus; conditions: post-emergence at GS/BBCH 12, assessed 21-22 DAT
# Protocol: (§3) Each pot is planted with two plants, the plants are watered from beneath and fertilized according there requirement. The pots are stored side by side in a greenhouse at 12° C. at the emergence phase. The temperature increases to 15-20° C. three weeks after sowing.
# (§4) A post-emergence treatment of herbicides is applied to the plants by means of fine distributed nozzles and a water use rate of 200 L/ha at the growth stage GS/BBCH 12 (2 true leaf stage). The herbicides are tested at different rates. Five cultivar replicates are carried out per rate.
# (§5) The evaluation of efficacy is assessed as crop damage caused by the herbicides using a scale from 0 to 100%, compared to the untreated control plants. Here, 0 means no damage and 100 means complete destruction of the plants. The level of efficacy is assessed 21-22 days after treatment (DAT). The efficacy results are presented as ED50 values.
# [4] = system: second AHAS-inhibitor susceptible WOSR line; experiment: Greenhouse post-emergence herbicide crop damage, Example 2, susceptible line; format: in vivo, Brassica napus; conditions: post-emergence at GS/BBCH 10, assessed 19 DAT
# Protocol: (§6) Plants of an AHAS-inhibitor tolerant WOSR line and plants of a second AHAS-inhibitor susceptible WOSR line are sown in 10 cm pots with a sandy loam. Each pot is planted with two plants, the plants are watered from beneath and fertilized according there requirement. The pots are stored side by side in a greenhouse at 12° C. at the emergence phase. The temperature increases to 15-20° C. three weeks after sowing.
# (§7) A post-emergence treatment of herbicides is applied to the plants by means of fine distributed nozzles and a water use rate of 200 L/ha at the growth stage GS/BBCH 10. The herbicides are tested at different rates. Twelve cultivar replicates are carried out per rate.
# (§8) The evaluation of efficacy is assessed as crop damage caused by the herbicides using a scale from 0 to 100%, compared to the untreated control plants. Here, 0 means no damage and 100 means complete destruction of the plants. The level of efficacy is assessed 19 days after treatment (DAT). The efficacy results are presented as ED50 values.
# [5] = system: first AHAS-inhibitor susceptible WOSR line; experiment: Greenhouse post-emergence herbicide crop damage, Example 1, susceptible line; format: in vivo, Brassica napus; conditions: post-emergence at GS/BBCH 12, assessed 21-22 DAT
# Protocol: as §3, §4, §5
# [6] = system: AHAS-inhibitor tolerant WOSR line; experiment: Greenhouse post-emergence herbicide crop damage, Example 2, tolerant line; format: in vivo, Brassica napus; conditions: post-emergence at GS/BBCH 10, assessed 19 DAT
# Protocol: as §6, §7, §8
# [7] = system: AHAS-inhibitor tolerant WOSR line; experiment: Plot post-emergence crop tolerance (PHYTOX), Example 3, WOSR; format: in vivo, Brassica napus; conditions: post-emergence at GS 12/13, 15 DAT, crop GS 14/15, AI rate g/ha: flupyrsulfuron-methyl-sodium 5, thifensulfuron-methyl 15, tritosulfuron 25, tribenuron-methyl 15
# Protocol: (§9) Plants of an AHAS-inhibitor tolerant WOSR line and plants of an AHAS-tolerant SOSR line are sown side by side in a plot. A post-emergence treatment of herbicides is applied to the plants by means of fine distributed nozzles at the growth stage GS/BBCH 12/13. There are four replications of each treatment.
# as §2
# AHAS-tolerant SOSR line = experiment: Plot post-emergence crop tolerance (PHYTOX), Example 3, SOSR; format: in vivo, Brassica napus; conditions: post-emergence at GS 12/13, 15 DAT, crop GS 13/14, AI rate g/ha: flupyrsulfuron-methyl-sodium 5, thifensulfuron-methyl 15, tritosulfuron 25, tribenuron-methyl 15
# Protocol: as §9, §2
# [8] = system: spring-type B. napus cultivar, 45A77; conditions: PM-mutant gene-containing spring-type cultivar 45A77; R. Degenhardt et al., Weed Technology 19, 2005, 608; cited from earlier work
# [9] = 10 DAT, crop GS 10/11, AI rate g/ha: propoxycarbazone 7, sulfosulfuron 2, flupyrsulfuron-methyl 1.8, amidosulfuron 2.75
# [10] = 29 DAT, crop GS 11/13, AI rate g/ha: propoxycarbazone 7, sulfosulfuron 2, flupyrsulfuron-methyl 1.8, amidosulfuron 2.75
Compound,"PHYTOX % [1, 9]","PHYTOX % [1, 10]","PHYTOX % [2, 9]","PHYTOX % [2, 10]","ED50 (crop damage, scale 0 to 100% vs untreated control) [3]","ED50 (crop damage, scale 0 to 100% vs untreated control) [4]","ED50 (crop damage, scale 0 to 100% vs untreated control) [5]","ED50 (crop damage, scale 0 to 100% vs untreated control) [6]",PHYTOX % [7],PHYTOX % (AHAS-tolerant SOSR line),effect of application on the crop [8]
COc1cc(OC)nc(NC(=O)NS(=O)(=O)N(C)S(C)(=O)=O)n1 [Amidosulfuron],0%,0%,100%,100%,,,,,,,
COc1nc(C)nc(NC(=O)NS(=O)(=O)c2ccccc2Cl)n1 [Chlorsulfuron],,,,,2.8 g/ai/ha,0.04 g/ai/ha,0.42 g/ai/ha,11.2 g/ai/ha,,,
COc1ncc(F)c2nc(S(=O)(=O)Nc3c(F)cccc3F)nn12 [Florasulam],,,,,6.53 g/ai/ha,0.28 g/ai/ha,1.51 g/ai/ha,4.9 g/ai/ha,,,
COC(=O)c1ccc(C(F)(F)F)nc1S(=O)(=O)NC(=O)Nc1nc(OC)cc(OC)n1 [Flupyrsulfuron-methyl-sodium],,,,,63316.17 g/ai/ha,0.79 g/ai/ha,0.58 g/ai/ha,147.97 g/ai/ha,11%,19%,
COC(=O)c1ccc(C(F)(F)F)nc1S(=O)(=O)NC(=O)Nc1nc(OC)cc(OC)n1 [Flupyrsulfuron-methyl],0%,0%,100%,100%,,,,,,,
COC(=O)c1ccccc1S(=O)(=O)NC(=O)Nc1nc(C)nc(OC)n1 [Metsulfuron-methyl],,,,,5.06 g/ai/ha,0.17 g/ai/ha,0.57 g/ai/ha,2.28 g/ai/ha,,,
CCCOc1nn(C(=O)[N-]S(=O)(=O)c2ccccc2C(=O)OC)c(=O)n1C.[Na+] [Propoxycarbazone-sodium],,,,,67.43 g/ai/ha,0.17 g/ai/ha,2.16 g/ai/ha,42.07 g/ai/ha,,,
CCCOc1nn(C(=O)[N-]S(=O)(=O)c2ccccc2C(=O)OC)c(=O)n1C.[Na+] [Propoxycarbazone],0%,0%,100%,100%,,,,,,,
CCS(=O)(=O)c1nc2ccccn2c1S(=O)(=O)NC(=O)Nc1nc(OC)cc(OC)n1 [Sulfosulfuron],0%,0%,99%,99%,2417.06 g/ai/ha,0.01 g/ai/ha,1.70 g/ai/ha,3.29 g/ai/ha,,,
COC(=O)c1sccc1S(=O)(=O)NC(=O)Nc1nc(C)nc(OC)n1 [Thifensulfuron-methyl],,,,,,,,,13%,23%,
COC(=O)c1ccccc1S(=O)(=O)NC(=O)N(C)c1nc(C)nc(OC)n1 [Tribenuron-methyl],,,,,25.88 g/ai/ha,0.11 g/ai/ha,2.59 g/ai/ha,9.11 g/ai/ha,17%,25%,
COc1nc(NC(=O)NS(=O)(=O)c2ccccc2C(F)(F)F)nc(C(F)(F)F)n1 [Tritosulfuron],,,,,42.30 g/ai/ha,1.76 g/ai/ha,0.39 g/ai/ha,2.96 g/ai/ha,43%,53%,
COc1nc(C)nc(NC(=O)NS(=O)(=O)c2ccsc2C(=O)O)n1 [thifensulfuron],,,,,,,,,,,"reduced canola biomass, herbicide injury symptoms, or delayed maturity"
Trisulfuron-methyl [Trisulfuron-methyl 500],,,,,41.81 g/ai/ha,0.03 g/ai/ha,3.36 g/ai/ha,4.48 g/ai/ha,,,
